Assays:
[1] = system: breast MCF-7 cancer cell line; experiment: MTT cytotoxicity assay against breast MCF-7 cancer cell line; assay type: cell-based; details: Homo sapiens, MCF7, 24 h treatment, mean ± SD, n = 3 experiments, read-out: IC50 (μM) MCF-7, in vitro cytotoxic activity
Protocol: The effect of the prepared benzo[g]quinoxaline derivatives 2–9 on the viability of breast MCF-7 cancer cell line was studied using MTT assay. The cytotoxicity was assessed using Dox as positive reference drug.
Antitumor activity of the newly prepared benzo[g]quinoxaline derivatives 2–9 were carried out against breast MCF-7 cancer cell line using MTT assay method. Cells at density of 1 × 10^4 were seeded in 96-well plate at 37 °C for 48 h under 5% CO2. After incubation, the cells were treated with different concentration of the prepared molecules and incubated for 24 h. MTT dye was added at the end of 24 h of drug treatment and incubated for 4 h at 37 °C. 100 µL of dimethyl sulphoxide was added to each well to dissolve the purple formazan formed. The color intensity of the formazan product, which represents the growth condition of the cells, was quantified using an ELISA plate reader at 570 nm. The experimental conditions were carried out with at least three replicates and the experiments were repeated at least three times.

MCF-7 cells [2] = experiment: Annexin V-FITC/PI apoptosis staining assay (flow cytometry); assay type: cell-based; details: MCF-7, compound at IC50 concentration, 48 h
Protocol: Apoptosis staining assay was performed to detect the effect of compound 3 on the percentage of early and late apoptosis in the breast MCF-7 cancer cell line. […] Therefore, compound 3 can be considered an apoptosis inducer in the breast MCF-7 cell line.
Apoptosis in MCF-7 cells was investigated using fluorescent Annexin V-FITC/PI detection kit by flow cytometry assay. Briefly, MCF-7 cells (2 × 10^5) after incubation for 12 h. Cells were treated with compound 3 at its IC50 concentration for 48 h, then the cells were harvested and stained with Annexin V-FITC/PI dye for 15 min in the dark at 37 °C. Flow cytometry analyses were performed using FACS Calibur flow cytometer (Becton and Dickinson, Heidelberg, Germany).
Figure 5 (A) Graphical representation of the effect of compound 3 on induction of apoptosis in MCF-7 cell line. (B) Effect of compound 3 on induction of apoptosis in MCF-7 cell line. Data are expressed as the mean ± SD (n = 3 experiments) and statistical comparisons were carried out using one-way analysis of variance (ANOVA) followed by Tukey’s multiple comparison test (** p < 0.01, and *** p < 0.001). […] The Comp 3 values are given in the order upper left, upper right, lower right, with no measure name. / The Control MCF-7 plot prints 1.51%, 0.13% and 0.77%. These are left out because the untreated control is not a substance.

Bax = experiment: ELISA measurement of Bax level in MCF-7 cells; assay type: cell-based; details: MCF-7 cells treated at IC50 (2.89 µM)
Protocol: (§1) In order to investigate the molecular pathway involved in apoptosis, compound 3 was screened for its ability to activate pro-apoptotic protein; Bax and downregulate anti-apoptotic protein; Bcl2 [31]. The MCF-7 cancer cell line was treated with compound 3 at its IC50 value (µM) and the level of expression of proteins involved in apoptosis was quantized using ELISA assay. […] Therefore, it can be concluded that compound 3 can induce the intrinsic pathway of apoptosis by activation of Bax and downregulation of Bcl2.
(§2) The levels of the apoptotic marker Bax, Bcl-2, and Fas/Fas-l were assessed using ELISA kit. The procedure of the used kits was completed according to the manufacturer’s instructions. Briefly, cell lysates were prepared from control and MCF-7 cells (2.5 × 10^5) treated with IC50 concentration of compound 3. Then, equal amounts of cell lysates were loaded then probed with specific antibodies. The samples were measured at 450 nm in ROBONEK P2000 ELISA reader. All experiments were performed in duplicate.
(§3) Figure 6 Effect of compound 3 on apoptosis related proteins, Bax, Bcl2, and Fas/Fas-L in MCF-7 cells. […] Data was expressed as mean ± SD (n = 3 experiments) and statistical comparisons were carried out using one-way analysis of variance (ANOVA) followed by Tukey’s multiple comparison test (*** p < 0.001).

MCF-7 cells [3] = experiment: Cell cycle analysis by DNA flow cytometry (PI staining); assay type: cell-based; details: MCF-7, compound at IC50 (2.89 µM), 48 h; untreated control 2.41%
Protocol: Compound 3 was tested at its IC50 concentration dose value.
MCF-7 cells (2 × 10^5/well) were harvested and washed twice in PBS. After that, cells were incubated at 37 °C and 5% CO2. The medium was replaced with (DMSO 1% v/v) containing the tested compound, then incubated for 48 h, washed twice in PBS, fixed with 70% ethanol, rinsed again with PBS, and then stained with DNA fluorochrome PI for 15 min at 37 °C. DNA content was analyzed by flow cytometry on a FACS Calibur flow cytometer (Becton and Dickinson, Heidelberg, Germany).
Figure 4 (A) Graphical representation of percentages of cells in pre-G1, G1, G2/M, and S cell cycle phase in MCF-7 cells treated with compound 3 (2.89 µM) for 48 h. (B) Effect of compound 3 (2.89 µM) on cell cycle distribution in MCF-7 cells for 48 h and analyzed by flow cytometry after staining with DNA fluorochrome propidium iodide; most of the compound 3 treated cells were in pre-G1 phase (apoptosis). Data are expressed as the mean ± SD (n = 3 experiments) and statistical comparisons were carried out using one-way analysis of variance (ANOVA) followed by Tukey’s multiple comparison test (*** p < 0.001). ***-Highly significant. […]

Bcl2 = experiment: ELISA measurement of Bcl2 level in MCF-7 cells; assay type: cell-based; details: MCF-7 cells treated at IC50 (2.89 µM)
Protocol: as §1, §2, §3

topoisomerase IIβ = molecular target: T1, topoisomerase IIβ (Homo sapiens, UniProt Q02880); experiment: Topoisomerase IIβ enzyme inhibition assay (Human DNA topo IIβ ELISA Kit # MBS942146); assay type: biochemical
T1 construct: purchased MBS942146
Protocol: To obtain a further insight into the mechanism of cell proliferation inhibition activity, benzo[g]quinoxaline molecule 3 was investigated for topoisomerase IIβ (topo IIβ) inhibitory activity using the Human DNA topo IIβ ELISA Kit # MBS942146.
Compound 3 and Dox were evaluated against topoisomerase IIβ for their inhibitory concentration (µM) using four doses concentration according to manufacturer’s instructions.
Figure 3 Graphical representation for comparison of topo IIβ IC50 of compound 3 and Dox; topo II was performed using four doses protocol for compound 3 and Dox, and the concentration that induced 50% maximum inhibition of topo II was determined from sigmoidal dose–response. Data are expressed as the mean ± SD (n = 3 experiments) and statistical comparisons were carried out using one-way analysis of variance (ANOVA) followed by Tukey’s multiple comparison test (** p < 0.01). **-Significant.

T1 sequence (Q02880 whole entry): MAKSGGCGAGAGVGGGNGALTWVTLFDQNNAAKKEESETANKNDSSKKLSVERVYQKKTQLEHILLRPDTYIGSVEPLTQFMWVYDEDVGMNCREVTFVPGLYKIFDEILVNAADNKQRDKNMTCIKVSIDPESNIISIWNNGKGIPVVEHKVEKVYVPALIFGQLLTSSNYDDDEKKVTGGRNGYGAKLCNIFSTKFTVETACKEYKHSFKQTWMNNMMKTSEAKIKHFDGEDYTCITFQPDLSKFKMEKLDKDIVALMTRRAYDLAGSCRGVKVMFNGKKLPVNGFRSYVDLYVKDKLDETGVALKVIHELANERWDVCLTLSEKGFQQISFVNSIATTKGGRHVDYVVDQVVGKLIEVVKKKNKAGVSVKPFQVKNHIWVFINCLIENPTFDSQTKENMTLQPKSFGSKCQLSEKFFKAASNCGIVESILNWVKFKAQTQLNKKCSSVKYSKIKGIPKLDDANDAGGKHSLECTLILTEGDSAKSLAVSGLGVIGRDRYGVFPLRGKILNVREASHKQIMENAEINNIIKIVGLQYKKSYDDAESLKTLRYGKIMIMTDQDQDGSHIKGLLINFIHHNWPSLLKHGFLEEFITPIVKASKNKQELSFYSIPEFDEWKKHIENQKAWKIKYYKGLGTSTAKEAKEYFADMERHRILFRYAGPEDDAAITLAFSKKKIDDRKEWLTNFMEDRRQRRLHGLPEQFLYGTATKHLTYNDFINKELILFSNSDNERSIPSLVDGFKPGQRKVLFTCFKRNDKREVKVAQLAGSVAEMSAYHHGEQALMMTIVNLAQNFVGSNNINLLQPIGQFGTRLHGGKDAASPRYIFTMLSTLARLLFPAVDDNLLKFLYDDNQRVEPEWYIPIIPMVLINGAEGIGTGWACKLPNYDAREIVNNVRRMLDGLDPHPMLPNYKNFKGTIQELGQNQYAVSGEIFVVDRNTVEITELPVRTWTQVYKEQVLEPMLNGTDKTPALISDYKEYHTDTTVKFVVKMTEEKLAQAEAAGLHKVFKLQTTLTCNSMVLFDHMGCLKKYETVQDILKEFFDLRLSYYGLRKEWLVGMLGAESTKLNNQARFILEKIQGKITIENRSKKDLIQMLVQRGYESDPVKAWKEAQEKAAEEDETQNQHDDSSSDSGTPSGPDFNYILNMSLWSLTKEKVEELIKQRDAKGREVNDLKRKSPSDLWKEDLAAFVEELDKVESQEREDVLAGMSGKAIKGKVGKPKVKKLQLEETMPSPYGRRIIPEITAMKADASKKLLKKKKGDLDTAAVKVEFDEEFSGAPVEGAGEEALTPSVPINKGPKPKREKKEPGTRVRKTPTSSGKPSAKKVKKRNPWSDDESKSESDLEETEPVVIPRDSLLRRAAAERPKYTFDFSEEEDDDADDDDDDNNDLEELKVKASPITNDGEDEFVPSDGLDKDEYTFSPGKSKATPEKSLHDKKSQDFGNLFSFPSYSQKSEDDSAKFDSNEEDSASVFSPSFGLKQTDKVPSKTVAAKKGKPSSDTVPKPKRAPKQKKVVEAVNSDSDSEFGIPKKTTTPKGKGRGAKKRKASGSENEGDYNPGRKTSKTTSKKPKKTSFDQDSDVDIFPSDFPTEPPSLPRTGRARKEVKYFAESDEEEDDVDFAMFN

| Compound | melting point [°C] | IC50 [1] [µM] | other results |
| --- | --- | --- | --- |
| Clc1ccc(C2=Nc3cc4ccccc4cc3NC2)cc1 [Compound 2, 3-(4-Chlorophenyl)-1,2-dihydrobenzo[g]quinoxaline] | 195 to 197 | 17.2 ± 0.69 |  |
| Clc1ccc(-c2cnc3cc4ccccc4cc3n2)cc1 [Compound 3, 2-(4-Chlorophenyl)benzo[g]quinoxaline] | 168 to 170 | 2.89 ± 0.11 | apoptosis percentage at late stage (upper right quadrant) (MCF-7 cells [2]; untreated control 0.13%): 21.38%; apoptosis percentage at the early stage (lower right quadrant) (MCF-7 cells [2]; untreated control 0.77%): 1.59%; increase of Bax expression compared with untreated control (Bax): 3.89 fold; percentage of cells at the pre-G1 phase (MCF-7 cells [3]): 38.24%; downregulation of Bcl2 compared with untreated control (Bcl2): 4.35 fold |
| CC(=O)N1C=C(c2ccc(Cl)cc2)Nc2cc3ccccc3cc21 [Compound 4, 1-(3-(4-Chlorophenyl)benzo[g]quinoxalin-1(4H)-yl)ethanone] | 171 to 173 | 16.2 ± 0.58 |  |
| CCOC(=O)C(C#N)=C(c1ccc(O)c(OC)c1)N1C=C(c2ccc(Cl)cc2)Nc2cc3ccccc3cc21 [Compound 5, Ethyl 3-(3-(4-Chlorophenyl)benzo[g]quinoxalin-1(4H)-yl)-2-cyano-3-(4-hydroxy-3-methoxyphenyl)acrylate] | 146 to 148 | 32.1 ± 1.11 |  |
| COc1cccc2c1C(=O)c1c(O)c3c(c(O)c1C2=O)C[C@@](O)(C(=O)CO)C[C@@H]3O[C@H]1C[C@H](N)[C@H](O)[C@H](C)O1 [Dox, Doxorubicin, reference compound] |  | 2.01 ± 0.01 | IC50 (topoisomerase IIβ): 3.31 µM |

Second part, led by results:

| melting point [°C] | Compound | IC50 [1] [µM] | other results |
| --- | --- | --- | --- |
| 225 to 227 | Nc1c(NCC(=O)c2ccc(Cl)cc2)c(Br)c2ccccc2c1Br [Compound 8, 2-(3-Amino-1,4-dibromonaphthalen-2-ylamino)-1-(4-chlorophenyl)ethanone] |  |  |
| 205 to 207 | CC(=O)N1CC(c2ccc(Cl)cc2)=Nc2c1c(Br)c1ccccc1c2Br [Compound 9, 1-(5,10-Dibromo-3-(4-chlorophenyl)benzo[g]quinoxalin-1(2H)-yl)ethanone] | 8.84 ± 0.36 |  |

— paper PMC8466781, “Evaluation of Synthetic 2,4-Disubstituted-benzo[g]quinoxaline Derivatives as Potential Anticancer Agents” (Pharmaceuticals, 2021)
